Experimental data from patent publication US9340500B2, “Aromatic heterocyclic derivative having TRPV4-inhibiting activity” (SHIONOGI & CO., LTD., priority 2011, dated 2016).
Converted amounts (≈) assume the structure as drawn.

Columns and labels:
[1] = target: T1, human TRPV4 (Homo sapiens (Human), UniProt Q9HBA0); assay: Test Example 1: measurement of TRPV4 inhibitory activity (Fluo 4-AM, FLIPR TETRA, 4α-PDD 1 μmol/L); format: cell-based; conditions: hTRPV4/CHO cells; for IC50: 4α-PDD 1 μmol/L
T1 sequence (Q9HBA0 whole entry): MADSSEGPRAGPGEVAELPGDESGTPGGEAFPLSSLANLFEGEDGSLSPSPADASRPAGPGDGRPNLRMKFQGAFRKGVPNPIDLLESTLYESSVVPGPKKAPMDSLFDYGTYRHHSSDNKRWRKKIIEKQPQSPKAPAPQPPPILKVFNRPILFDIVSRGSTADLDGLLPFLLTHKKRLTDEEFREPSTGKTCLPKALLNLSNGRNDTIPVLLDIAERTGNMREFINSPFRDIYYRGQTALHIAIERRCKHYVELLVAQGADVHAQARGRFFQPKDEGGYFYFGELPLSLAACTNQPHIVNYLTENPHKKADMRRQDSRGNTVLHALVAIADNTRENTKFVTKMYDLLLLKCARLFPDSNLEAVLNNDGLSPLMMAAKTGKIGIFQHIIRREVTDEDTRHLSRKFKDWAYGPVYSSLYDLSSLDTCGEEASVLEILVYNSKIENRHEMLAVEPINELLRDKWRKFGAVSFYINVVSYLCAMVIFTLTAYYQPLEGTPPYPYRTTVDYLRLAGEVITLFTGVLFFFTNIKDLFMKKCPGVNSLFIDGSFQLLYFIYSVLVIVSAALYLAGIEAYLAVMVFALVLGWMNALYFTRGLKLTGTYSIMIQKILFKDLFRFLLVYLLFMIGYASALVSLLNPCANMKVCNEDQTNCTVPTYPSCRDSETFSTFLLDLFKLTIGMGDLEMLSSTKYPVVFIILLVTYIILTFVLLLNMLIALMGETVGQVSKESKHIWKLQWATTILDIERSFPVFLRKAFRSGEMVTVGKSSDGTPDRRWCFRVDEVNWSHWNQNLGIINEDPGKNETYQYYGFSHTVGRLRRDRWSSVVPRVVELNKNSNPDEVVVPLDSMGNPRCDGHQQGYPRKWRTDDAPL
Method: (§1) For each compound, TRPV4 inhibitory activity was measured using cells.
(§2) (1) The TRPV4 inhibitory activity was measured using CHO-K1 cells stably expressing human TRPV4 (hTRPV4/CHO cells).
(2) In the day before the experimental day, frozen cell were thawed and washed with the culture medium (MEM-α, 10% FBS, 2 mmol/L GlutaMax, 50 unit Penicillin, 50 μg/mL Streptomycin). Then cells were suspended in the culture medium.
(3) The 384-well plates which hTRPV4/CHO cells were seeded at densities of 4000 cells/well in the culture medium and cultured in a CO2 incubator in the presence of 5% CO2 at 37° C. for overnight was used as assay plates.
(4) The assay plate was washed with assay buffer (Hanks, 20 mmol/L HEPES, 2.5 mmol/L probenecid, pH7.4), and the buffer were remained at 20 μL/well.
(5) 10 μl of dye loading buffer (9 μmol/L Fluo 4-AM, 0.09% Pluronic F-127/assay buffer) was added to each well, then the assay plate was incubated in a CO2 incubator in the presence of 5% CO2 at 37° C. for one hour. (final 3 μmol/L Fluo4-AM).
(6) The assay plate was washed with the assay buffer, and the buffers were remained at 20 μL/well. Then the assay plate was incubated for 10 min at room temperature.
(7) Diluted compound solution was dispensed to each well in the compound plate, and mixed with built-in Pipette and Mixer of the Fluorescence analysis system FLIPR TETRA (Molecular devices).
(8) After incubation for 5 min, 20 μL of 4α-PDD solution were applied to each well of assay plate and mixed with the FLIPR TETRA. (final 1 μmol/L 4α-PDD)
(9) The fluorescent intensity was measured with FLIPR TETRA system for 10 min from the point of time addition the compound solution, at Ex 470-495 nm, Em 515-575 nm wavelength.
TRPV4 inhibitory activity (IC50 value and Ki value) of a compound was evaluated according to the following procedure.
(10) In the presence of the compound, the difference between maximal and minimal of fluorescent intensity value for 5 min from just before addition of 4α-PDD solution was calculated, and it was referred as Max-Min value. Max-Min value of the Ruthenium Red at 20 μM was defined as 100% inhibitory activity, Max-Min value in the absence of the compound was defined as 0% inhibitory activity. The TRPV4 inhibitory activity of the compound was calculated by the following formula. (1−(Max-Min value of the compound−100% inhibitory activity)/(0% inhibitory activity−100% inhibitory activity))×100 (11) Inhibitory activity was calculated at 10 points with three fold serial dilution, in the final concentration of the compound from 10 μmmol/L to 0.5 nmol/L, the IC50 value was calculated by logistic approximation method. (12) In the absence of the compound, the fluorescent intensity was measured as the same method with 10, 1, 0.5, 0.2, and 0 μmol/L as final concentration of 4α-PDD. The difference of minimal and maximal fluorescent intensity value for 5 min from just before addition of 4α-PDD solution was calculated, and it was referred as Max-Min value. Max-Min value of the 4α-PDD at 10 μmol/L was defined as 100% activity, Max-Min value in the absence of 4α-PDD was defined as 0% activity. The TRPV4 activity of each concentration of 4α-PDD was calculated by the following formula. (Max-Min value of the each 4α-PDD concentration−0% activity)/(100% activity−0% activity))×100 (13) Effective activity was calculated in 5 concentrations of 4α-PDD the above. The EC50 value was calculated by logistic approximation method. The Ki value of a compound was calculated by the following formula. Ki (nmol/L)=IC50 value (nmol/L)/(1+[…] (test 4α-PDD concentration (nmol/L)/EC50 value (nmol/L))

[2] = target: T1, human TRPV4; assay: Test Example 3: measurement of TRPV4 inhibitory activity (Fluo-3, FDSS 3000, 4α-PDD); format: cell-based; conditions: hTRPV4/CHO cells, calculated from IC50 and 4α-PDD EC50
Method: as §1, §2
(2) Frozen cells were thawed and subcultured with the medium (MEM-α, 10% FBS, […], 50 unit/mL penicillin, 50 μg/mL streptomycin, 1 mg/mL G418).
(3) The 96-well plates which hTRPV4/CHO cells were seeded at densities of 2×10^4 cells/well in the culture medium and cultured in a CO2 incubator in the presence of 5% CO2 at 37° C. for 24 h was used as assay plates.
(4) The assay plate was washed with assay buffer (Hanks, […], […], pH7.4).
(5) Fluo-3, fluorescent dye for Ca influx assay was added to each well, then the assay plate was incubated in a CO2 incubator in the presence of 5% CO2 at 37° C. for one hour (final conc.; 5 μmmol/L Fluo-3).
(6) The assay plate was washed with the assay buffer, and the buffer was remained at 30 μL/well. Then the assay plate was incubated for 10 min at 37° C.
(7) Diluted compound solution was dispensed to each well in the compound plate, and mixed with built-in Pipette and Mixer of the fluorescence analysis system FDSS 3000 (Hamamatsu Photonics).
(8) 50 μL of 4α-PDD solution (concluding 0.1% Pluronic F-127) was applied to each well of assay plate and mixed.
(9) The fluorescent intensity was measured by FDSS 3000 for 8 min from the point of time addition the compound solution, at Ex 480 nm, Em 540 nm wavelength.
TRPV4 inhibitory activity (Ki value) of a compound was evaluated according to the following procedure.
(10) In the presence of the compound, the difference between maximal and minimal of fluorescent intensity value for 8 min from just before addition of 4α-PDD solution was calculated, and it was referred as Max-Min value. Max-Min value of the Ruthenium Red at 10 μM was defined as 100% inhibitory activity, Max-Min value in the absence of the compound was defined as 0% inhibitory activity. The TRPV4 inhibitory activity of the compound was calculated by the following formula. (1−(Max-Min value of the compound−100% inhibitory activity)/(0% inhibitory activity−100% inhibitory activity))×100 (11) By the following formula, inhibitory activity was calculated at 10 points with three fold serial dilution, in the final concentration of the compound from 10 μmmol/L to 0.5 nmol/L. The IC50 value was calculated by dose-response curve. 100−[(fluorescent intensity in the presence of the compound−fluorescent intensity of back ground)/(total fluorescent intensity−fluorescent intensity of back ground)]×100 (12) In the presence of the compound, activity of 4α-PDD was measured at 9 points with three fold serial dilution from 20 μmol/L. Activity of 4α-PDD was calculated by the following formula. (Max-Min value of the each 4α-PDD concentration−0% activity)/(100% activity−0% activity))×100 (13) Effective activity was calculated in 4α-PDD the above. The EC50 value was calculated by dose-response curve. (14) The Ki value of a compound was calculated by the following formula. Ki (nmol/L)=IC50 value (nmol/L)/([A]/EC50 value (nmol/L)) [A]; Concentration of agonist (nmol/L)

[3] = Solubility test; format: physicochemical; conditions: artificial intestinal juice (phosphate buffer) with 1% DMSO, fassgf or other biorelevant, kinetic from dmso stock, artificial intestinal juice pH 6.8, 16 hours at 25° C.
Method: The solubility of each compound is determined under 1% DMSO addition conditions. A 10 mmol/L solution of the compound is prepared with DMSO, and 6 μL of the compound solution is added to 594 μL of an artificial intestinal juice (water and 118 mL of 0.2 mol/L NaOH reagent are added to 250 mL of 0.2 mol/L potassium dihydrogen phosphate reagent to reach 1000 mL) with a pH of 6.8. The mixture is left standing for 16 hours at 25° C., and the mixture is vacuum-filtered. The filtrate is two-fold diluted with methanol/water=1/1, and the compound concentration in the filtrate is measured with HPLC or LC/MS/MS by the absolute calibration method.

[4] = Metabolism stability test; format: in vitro ADME; conditions: human liver microsomes, 30 minutes
Method: Using a commercially available pooled human hepatic microsomes, a test compound was reacted for a constant time, a remaining rate was calculated by comparing a reacted sample and an unreacted sample, thereby, a degree of metabolism in liver was assessed.
A reaction was performed (oxidative reaction) at 37° C. for 0 minute or 30 minutes in the presence of 1 mmol/L NADPH in 0.2 mL of a buffer (50 mmol/L Tris-HCl pH 7.4, 150 mmol/L potassium chloride, 10 mmol/L magnesium chloride) containing 0.5 mg protein/mL of human liver microsomes. After the reaction, 50 μL of the reaction mixture was added to 100 μL of a methanol/acetonitrile=1/1 (v/v), mixed and centrifuged at 3000 rpm for 15 minutes. The test compound in the supernatant was quantified by LC/MS/MS, and a remaining amount of the test compound after the reaction was calculated, letting a compound amount at 0 minute reaction time to be 100%. Hydrolysis reaction was performed in the absence of NADPH and glucuronidation reaction was in the presence of 5 mM UDP-glucuronic acid in place of NADPH, followed by similar operations.

[5] = target: human ether-a-go-go related gene (hERG) channel (Homo sapiens (Human), UniProt Q12809); assay: hERG test (whole cell patch clamp, IKr); format: cell-based; conditions: 1 μmol/L of test compound, HEK293 cells expressing hERG
human ether-a-go-go related gene (hERG) channel, sequence (Q12809 whole entry): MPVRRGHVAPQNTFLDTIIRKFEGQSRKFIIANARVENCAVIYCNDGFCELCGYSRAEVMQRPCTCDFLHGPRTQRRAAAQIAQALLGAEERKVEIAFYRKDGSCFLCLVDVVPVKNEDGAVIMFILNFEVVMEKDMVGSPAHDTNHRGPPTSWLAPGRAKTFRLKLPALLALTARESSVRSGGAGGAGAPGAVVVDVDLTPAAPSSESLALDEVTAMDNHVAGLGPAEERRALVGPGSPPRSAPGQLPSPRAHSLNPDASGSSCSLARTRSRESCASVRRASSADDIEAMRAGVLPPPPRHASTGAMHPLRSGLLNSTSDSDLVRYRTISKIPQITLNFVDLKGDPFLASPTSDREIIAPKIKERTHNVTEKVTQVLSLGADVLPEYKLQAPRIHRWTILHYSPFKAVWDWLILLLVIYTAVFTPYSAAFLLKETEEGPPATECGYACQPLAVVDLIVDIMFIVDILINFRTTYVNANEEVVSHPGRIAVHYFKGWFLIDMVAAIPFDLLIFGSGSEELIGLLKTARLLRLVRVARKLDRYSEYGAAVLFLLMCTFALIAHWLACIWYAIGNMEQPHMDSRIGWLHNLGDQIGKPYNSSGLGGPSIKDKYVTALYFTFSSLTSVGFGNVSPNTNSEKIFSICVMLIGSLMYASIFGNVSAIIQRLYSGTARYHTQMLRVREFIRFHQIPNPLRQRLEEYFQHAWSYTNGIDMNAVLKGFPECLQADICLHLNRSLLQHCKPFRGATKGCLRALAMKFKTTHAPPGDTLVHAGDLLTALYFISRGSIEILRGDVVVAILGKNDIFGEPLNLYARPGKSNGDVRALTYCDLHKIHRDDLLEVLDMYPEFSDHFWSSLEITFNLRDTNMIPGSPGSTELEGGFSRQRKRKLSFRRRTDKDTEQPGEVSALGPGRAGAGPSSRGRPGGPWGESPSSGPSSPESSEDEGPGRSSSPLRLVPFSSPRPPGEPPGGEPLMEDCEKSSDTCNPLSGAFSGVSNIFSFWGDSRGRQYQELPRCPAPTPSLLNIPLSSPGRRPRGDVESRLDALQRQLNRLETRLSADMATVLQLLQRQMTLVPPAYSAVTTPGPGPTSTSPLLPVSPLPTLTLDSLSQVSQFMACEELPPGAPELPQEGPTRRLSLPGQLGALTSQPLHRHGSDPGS
Description: For the purpose of assessing risk of an electrocardiogram QT interval prolongation, effects on delayed rectifier K^+ current (IKr), which plays an important role in the ventricular repolarization process, was studied using HEK293 cells expressing human ether-a-go-go related gene (hERG) channel.
After a cell was retained at a membrane potential of −80 mV by whole cell patch clamp method using an automated patch clamp system (PatchXpress 7000A, Axon Instruments Inc.), IKr induced by depolarization pulse stimulation at +40 mV for 2 seconds and, further, repolarization pulse stimulation at −50 mV for 2 seconds was recorded. […] From the recording IKr, an absolute value of the tail peak current was measured based on the current value at the resting membrane potential using an analysis software (DataXpress ver. 1, Molecular Devices Corporation). Further, the % inhibition relative to the tail peak current before application of the test substance was calculated, and compared with the vehicle-applied group (0.1% dimethyl sulfoxide solution) to assess influence of the test substance on IKr.

[6] = compound concentration 2 μmol/L
[7] = compound concentration 0.5 μmol/L

IC50 [1] | Ki [2] | solubility at 16 h [3] | remaining rate (metabolism stability) [4, 6] | remaining rate (metabolism stability) [4, 7] | Ki ([1]; calculated from IC50 and 4α-PDD EC50) | SMILES | hERG % inhibition [5]
360 nM | 197 nM | 19.3 µM (≈ 8.71 µg/mL) |  |  |  | Cc1c(C(=O)Nc2cccc(C(F)(F)F)c2)cc(C(C)(C)C)n1CCCN1CCOCC1 [Compound I-002] | 
 | 3070 nM | > 50 µM | 71.4% |  |  | Cc1c(C(=O)Nc2cnccn2)cc(-c2ccccc2)n1CCCN1CCOCC1 [Compound I-003] | 
130 nM | 191 nM | > 50 µM |  |  |  | Cc1c(C(=O)Nc2cccc(C(F)(F)F)c2)cc(-c2ccccc2)n1CCCN(CCO)CCO [Compound I-016] | 
 | 1500 nM | > 50 µM | 89.1% |  |  | Cc1c(C(=O)Nc2nccs2)cc(-c2ccccc2)n1CCCN1CCOCC1 [Compound I-019] | 
610 nM | 379 nM | > 50 µM |  |  |  | Cc1c(C(=O)Nc2cccc(C(F)(F)F)c2)cc(-c2cccnc2)n1CCCN1CCOCC1 [Compound I-021] | 
 | 605 nM |  |  | 96.9% |  | Cc1c(C(=O)Nc2cccc(C(F)(F)F)c2)cc(-c2ccccc2)n1CCCN [Compound I-023] | 
 | 771 nM | > 50 µM |  | 82.2% |  | Cc1c(C(=O)Nc2cccc(C(F)(F)F)c2)cc(-c2ccccc2)n1CCCN(C)CC[C@H](O)[C@H](O)CO [Compound I-035] | 
 | 282 nM | > 50 µM |  |  |  | Cc1c(C(=O)Nc2cccc(C(F)(F)F)c2)cc(-c2ccccc2)n1CCCN(C)CC1CCN(C)CC1 [Compound I-039] | 
260 nM | 196 nM | 18.5 µM (≈ 8.96 µg/mL) |  |  |  | Cc1c(C(=O)Nc2cccc(C(F)(F)F)c2)cc(-c2ccccc2)n1CCCN1CCNC(=O)C1 [Compound I-071] | 
9700 nM |  | > 50 µM |  | 92.7% | 4700 nM | Cc1c(C(=O)Nc2cccc(C(F)(F)F)c2)cc(C2CCNCC2)n1CCCN1CCOCC1 [Compound I-076] | 
7400 nM | 1800 nM | 24.3 µM (≈ 12.3 µg/mL) |  |  |  | Cc1c(NS(=O)(=O)c2cccc(C(F)(F)F)c2)cc(-c2ccccc2)n1CCCN1CCOCC1 [Compound I-080] | 
 | 1440 nM | > 50 µM |  |  |  | Cc1c(NC(=O)c2cccc(C(F)(F)F)c2)cc(-c2ccccc2)n1CCCN1CCOCC1 [Compound I-082] | 13.5%

SMILES | IC50 [1] | Ki [2] | solubility at 16 h [3] | remaining rate (metabolism stability) [4, 6] | remaining rate (metabolism stability) [4, 7] | Ki ([1]; calculated from IC50 and 4α-PDD EC50) | hERG % inhibition [5]
Cc1c(C(=O)Nc2ccccc2)cc(-c2ccccc2)n1CCCN1CCOCC1 [Compound I-009] | 1500 nM | 678 nM | > 50 µM |  |  |  | 
Cc1c(C(=O)Nc2ccccc2C(F)(F)F)cc(-c2ccccc2)n1CCCN1CCOCC1 [Compound I-022] | 2400 nM | 2480 nM | > 50 µM |  |  |  | 
